Measured values reported in a polymer gas permeability compilation.

| SMILES | CO2 permeability [Barrer] | N2 permeability [Barrer] | O2 permeability [Barrer] | CH4 permeability [Barrer] | H2 permeability [Barrer] |
| --- | --- | --- | --- | --- | --- |
| *Oc1ccc(S(=O)(=O)c2ccc(Oc3ccc(C(C)(C)c4ccc(*)c(C(O)(C(F)(F)F)C(F)(F)F)c4)cc3C(O)(C(F)(F)F)C(F)(F)F)cc2)cc1 (repeat unit) | 5.4 | 0.22 | 1.5 |  |  |
| *C(C)=C(*)[Si](C)(C)C (repeat unit) | 31900 | 5650 | 12200 | 14500 | 15500 |
| *Oc1ccc(S(=O)(=O)c2ccc(Oc3ccc(C(C)(C)c4ccc(*)cc4)cc3CN)cc2)cc1 (repeat unit) | 1.95 | 0.11 | 0.7 | 0.11 |  |
| *C(=C(*)c1ccc(S(=O)(=O)O)cc1)c1ccc(S(=O)(=O)O)cc1 (repeat unit) | 21 | 0.28 | 2.5 |  |  |
| *C(=C(*)c1ccc2c(c1)C(C)(C)c1ccccc1-2)c1ccc(F)c(F)c1 (repeat unit) | 26000 | 5100 | 6600 | 12000 | 11000 |
| *c1ccc(Oc2ccc(N3C(=O)c4cc(Oc5ccc(C(C)(C)C)cc5)c(-c5cc6c(cc5Oc5ccc(C(C)(C)C)cc5)C(=O)N(*)C6=O)cc4C3=O)cc2)cc1 (repeat unit) | 85.6 | 2.95 | 11.3 | 3.16 |  |
| *c1ccc(C(c2ccc(-c3nnc(*)n3-c3ccc(O)cc3)cc2)(C(F)(F)F)C(F)(F)F)cc1 (repeat unit) | 268 | 10.2 |  | 6.69 |  |
| *c1ccc2c(-c3c(O)ccc4cc(N5C(=O)c6ccc(C(=O)c7ccc8c(c7)C(=O)N(*)C8=O)cc6C5=O)ccc34)c(O)ccc2c1 (repeat unit) | 3.21 | 0.11 | 0.76 | 0.06 | 4.52 |
| *c1c(C)cc(-c2cc(C)c(N3C(=O)c4ccc(Oc5cc(C(C)(C)C)c(Oc6ccc7c(c6)C(=O)N(*)C7=O)cc5C(C)(C)C)cc4C3=O)c(C)c2)cc1C (repeat unit) | 95 | 4.9 | 22 | 5.6 | 150 |
| *c1ccc(-c2ccc(Oc3ccc(C4(c5ccc(Oc6ccc(-c7ccc(N8C(=O)c9ccc(Oc%10ccc(C(C)(C)c%11ccc(Oc%12ccc%13c(c%12)C(=O)N(*)C%13=O)cc%11)cc%10)cc9C8=O)cc7)cc6C(F)(F)F)cc5)c5ccccc5C(=O)N4c4ccccc4)cc3)c(C(F)(F)F)c2)cc1 (repeat unit) | 16.6 | 0.95 | 4.25 | 0.84 |  |
| *NCC(C)(C)CC(C)CCNC(=O)c1ccc(C(*)=O)cc1 (repeat unit) | 0.33 | 0.016 | 0.092 | 0.018 |  |
| *NC(=O)c1ccc(C(c2ccc(C(=O)O)c(C(=O)Nc3cc(Oc4ccc(*)c(N)c4)ccc3N)c2)(C(F)(F)F)C(F)(F)F)cc1C(=O)O (repeat unit) | 3.69 | 0.17 | 0.97 | 0.087 |  |
| *CC(*)c1ccc(OC)cc1 (repeat unit) | 18.9 | 0.61 | 2.6 | 0.91 |  |
| *Oc1ccc(C(C)(C)c2ccc(Oc3ccc(C(=O)c4ccc(C(C)(C)c5ccc(C(=O)c6ccc(*)cc6)cc5)cc4)cc3)cc2)cc1 (repeat unit) | 4.4 | 0.21 | 1.1 | 0.22 | 12.4 |
| *CC(*)(F)F (repeat unit) | 0.517 | 0.0223 | 0.0826 | 0.02 | 0.538 |
| *c1cc2c(cc1C)-c1cc(C)c(N3C(=O)c4ccc(C(c5ccc6c(c5)C(=O)N(*)C6=O)(C(F)(F)F)C(F)(F)F)cc4C3=O)cc1S2(=O)=O (repeat unit) | 73.5 | 3.27 | 16.5 | 1.74 | 156 |
| *CC(*)OC1CC2CCC1C2 (repeat unit) | 25 | 0.96 | 3.55 |  |  |
| *C(C)=C(*)CC(C)C (repeat unit) | 900 | 93 | 245 | 190 | 750 |
| *C(C)=C(*)C(C)C (repeat unit) | 10700 | 1250 | 2700 | 2690 | 5720 |
| *c1cccc(Oc2cccc(-n3c(=O)c4cc5c(=O)n(*)c(=O)c5cc4c3=O)c2)c1 (repeat unit) | 0.5 | 0.0181 | 0.13 | 0.008 | 3.6 |
| *CC(*)C (repeat unit) | 9.2 | 0.5 | 1.41 |  |  |

| SMILES | CO2 permeability [Barrer] | N2 permeability [Barrer] | O2 permeability [Barrer] | CH4 permeability [Barrer] | H2 permeability [Barrer] |
| --- | --- | --- | --- | --- | --- |
| *c1nc2cc(-c3ccc4[nH]c(-c5cc(Br)c(*)cc5Br)nc4c3)ccc2[nH]1 (repeat unit) |  |  | 0.07 |  | 1.89 |
| *CCCCO* (repeat unit) | 170 | 8.85 | 21.5 | 22.5 | 36 |
| *c1c(C)c2c(c(N3C(=O)c4ccc(-c5ccc6c(c5)C(=O)N(*)C6=O)cc4C3=O)c1C)C(C)(C)CC2 (repeat unit) | 329 | 22 | 83.4 | 23.9 |  |
| *c1ccc2c3c(ccc2c1)OC1CC3c2c(ccc3cc(N4C(=O)c5ccc(C(c6ccc7c(c6)C(=O)N(*)C7=O)(C(F)(F)F)C(F)(F)F)cc5C4=O)ccc23)O1 (repeat unit) | 26.3 | 1.1 | 5.85 | 0.6 | 60.2 |
| *C(=C(*)c1ccc([Si](C(C)C)(C(C)C)C(C)C)cc1)c1ccccc1 (repeat unit) | 1300 | 130 | 290 | 315 | 635 |
| *c1ccc(Cc2ccc(N3C(=O)c4ccc(C(=O)Oc5ccc(C(c6ccc(OC(=O)c7ccc8c(c7)C(=O)N(*)C8=O)cc6)(C(F)(F)F)C(F)(F)F)cc5)cc4C3=O)cc2)cc1 (repeat unit) |  | 0.164 | 0.917 |  | 11.8 |
| *Oc1ccc(S(=O)(=O)c2ccc(Oc3ccc(C(C)(C)c4ccc(*)cc4)cc3N)cc2)cc1 (repeat unit) | 2.95 | 0.12 | 0.745 | 0.12 |  |
| *C(=C(*)c1ccc(S(=O)(=O)O)cc1)c1ccc(C(C)(C)C)cc1 (repeat unit) | 340 | 11 | 45 |  |  |
| *Oc1ccc(S(=O)(=O)c2ccc(Oc3ccc(C4(c5ccc(*)cc5)c5ccccc5-c5ccccc54)cc3)cc2)cc1 (repeat unit) | 13.8 | 0.484 | 2.76 | 0.531 |  |
| *Oc1c(Br)cc(C(C)(C)c2cc(Br)c(OC(=O)c3cccc(C(*)=O)c3)c(Br)c2)cc1Br (repeat unit) | 4.93 | 0.179 | 1.29 | 0.142 | 18.1 |
| *C(=C(*)c1ccc(O[Si](C)(C)C(C)(C)C)cc1)c1ccc(F)cc1 (repeat unit) | 800 | 55 | 140 | 140 | 315 |
| *c1ccc(N(c2ccc(OC)cc2)c2ccc(N3C(=O)c4ccc(C(c5ccc6c(c5)C(=O)N(*)C6=O)(C(F)(F)F)C(F)(F)F)cc4C3=O)cc2)cc1 (repeat unit) | 16.8 | 0.89 | 4.28 | 0.5 |  |
| *Oc1ccc2c(c1)C1(CC2(C)C)CC(C)(C)c2ccc(OC(=O)c3cccc(C(*)=O)c3)cc21 (repeat unit) | 18.9 | 1 | 5.31 | 1.14 |  |
| *Oc1c(C)cc(*)c(C(=O)c2ccc(C)cc2)c1C (repeat unit) | 21.4 | 2.42 | 7.36 | 1.49 |  |
| *NC(=O)c1ccc(C(c2ccc(C(=O)Nc3c(C)cc4c(c3C)C3c5ccccc5C4c4cc(C)c(*)c(C)c43)cc2)(C(F)(F)F)C(F)(F)F)cc1 (repeat unit) | 121 | 5.8 | 27.5 |  | 212 |
| *c1c(C)c(C)c(N2C(=O)c3cc4c(cc3C2=O)C2(CC(C)(C)c3cc5c(cc32)C(=O)N(*)C5=O)CC4(C)C)c(C)c1C (repeat unit) | 3940 | 257 | 722 | 390 | 1920 |
| *Oc1ccc(S(=O)(=O)c2ccc(Oc3ccc(-c4ccc(*)cc4)cc3)cc2)cc1 (repeat unit) | 5.6 | 0.236 | 1.3 | 0.255 |  |
| *c1ccc(N(c2ccc(N3C(=O)c4ccc(C(c5ccc6c(c5)C(=O)N(*)C6=O)(C(F)(F)F)C(F)(F)F)cc4C3=O)cc2)c2ccc(N(c3ccc(OC)cc3)c3ccc(OC)cc3)cc2)cc1 (repeat unit) | 13 | 0.59 | 2.94 | 0.4 |  |
| *Nc1ccc(C(c2ccc(NC(=O)c3ccc(Oc4cc(C(C)(C)C)c(Oc5ccc(C(*)=O)cc5)cc4C(C)(C)C)cc3)cc2)(C(F)(F)F)C(F)(F)F)cc1 (repeat unit) | 36 | 1.51 | 7.88 | 1.24 |  |
| *Oc1ccc(S(=O)(=O)c2ccc(Oc3cccc4c(*)cccc34)cc2)cc1 (repeat unit) | 1.6 | 0.0568 | 0.42 | 0.0364 | 8.1 |
| *N=P(*)(C)c1ccccc1 (repeat unit) | 6.5 | 0.6 | 1.8 | 0.7 |  |
